In patent US11077126B2 (priority 2017, dated 2021):

Key:
[1] = test system: transplanted tumor of human renal clear cell adenocarcinoma 786-O cells; test: Human renal clear cell adenocarcinoma in nude mice model; conditions: 786-O nude mice; 30 mg/kg i.g. 30 d
Procedure: (§1) 786-O cells in a logarithmic growth phase were taken and subjected to a trypan blue exclusion experiment showing that the cell viability was more than 95%, then the cells were subjected to trypsinization, centrifugation, and supernatant removal. Then cell concentration was adjusted to 1×10^7/ml with matrigel, and then each nude mouse was inoculated subcutaneously with 0.2 ml of cells at its right armpit and recorded as the first day of inoculation. […] Each group was continuously administered intragastrically for 30 days with a dose of 20 ml/kg. The mice were sacrificed the next day after drug withdrawal and the indicators were tested. The long diameter and short diameter of the tumor, and the body weight of each mouse were recorded every 3 days from drug administration to nude mouse sacrifice.
(§2) The body weight of the nude mice and the long diameter (a) and short diameter (b) of the transplanted tumor were measured every 3 days, and the tumor volume (v), relative tumor volume (RTV) and relative tumor proliferation rate (T/C) are calculated respectively according to the following formulas, wherein V=a×b^2/2; RTV=V/V0 (V0 is the tumor volume before administration, V is the tumor volume before sacrifice), and T/C (%)=treatment group RTV/model control group RTV×100%.
(§3) Each mouse was weighed and sacrificed. After the tumor was completely stripped off from the body of the mouse, the non-tumor tissues such as blood stains and fat were removed to weigh the tumor and calculate the tumor growth inhibition rate. The average tumor weight of each group of mice is used as an indicator of efficacy. Tumor growth inhibition rate (%)=(1−the average tumor weight of the treatment group/the average tumor weight of the model group)×100%.

[2] = test system: transplanted tumor of human esophageal cancer TE-1 cells; test: Human esophageal cancer in nude mice model; conditions: 30 mg/kg
Procedure: as §1, with “Then” for “786-O cells in a logarithmic growth phase were taken and subjected to a trypan blue exclusion experiment showing that the cell viability was more than 95%, then the cells were subjected to trypsinization, centrifugation, and supernatant removal. Then”
as §2, §3

[3] = test system: transplanted tumor of mouse Lewis lung cancer; test: Inhibition of transplanted tumor of mouse Lewis lung cancer
Procedure: Lewis lung cancer cells were cultured in a RPMI 1640 culture medium containing 10% fetal bovine serum at 37° C. in a 5% CO2 incubator. The cells in the logarithmic growth phase were subjected to trypsinization with 0.25% trypsin, then the cells were collected to be centrifugated to remove the obtained supernatant, then were washed twice with sterile normal saline. […] The Lewis cells were adjusted to 1×10^7/mL in concentration and stored in ice water. 75% ethanol was used to disinfect the skin under the right armpits of the mice, and each C57BL/6 mouse was soon inoculated subcutaneously with 0.2 ml of the cells at its right armpit.
In the Lewis lung cancer model, the mice inoculated with the tumor were randomly divided into groups with 10 mice in each group on the next day of inoculation. […] Each group was continuously administered intragastrically for 15 days with a dose of 20 ml/kg.
(§4) The tumor-bearing mice were weighed and sacrificed the next day after the last administration. The subcutaneous tumors were dissected and weighed. The average tumor weight of each group is calculated, and the tumor inhibition rate is calculated. Tumor inhibition rate=(1−T/C)×100%
(§5) T: average tumor weight of the drug-administered group; C: average tumor weight of the blank control group.

[4] = test system: transplanted tumor of human glioblastoma A172 cells; test: Human glioblastoma in nude mice model; conditions: 30 mg/kg i.g. 30 d
Procedure: as §1, with “Then” for “786-O cells in a logarithmic growth phase were taken and subjected to a trypan blue exclusion experiment showing that the cell viability was more than 95%, then the cells were subjected to trypsinization, centrifugation, and supernatant removal. Then”, “matrigel,” for “matrigel, and”
as §2, §3

[5] = test system: transplanted tumor of human pancreatic cancer PANC-1 cells; test: Human pancreatic cancer in nude mice model
Procedure: as §1, with “Then” for “786-O cells in a logarithmic growth phase were taken and subjected to a trypan blue exclusion experiment showing that the cell viability was more than 95%, then the cells were subjected to trypsinization, centrifugation, and supernatant removal. Then”
as §2, with “RTV×100%” for “RTV×100%.”
as §3

[6] = test system: transplanted tumor of mouse H22 liver cancer; test: Inhibition of transplanted tumor of mouse H22 liver cancer
Procedure: The H22 cell strains cryopreserved in liquid nitrogen were resuscitated in Kunming mice. After 3 generations, the ascites of Kunming mice were taken and placed in a 50 ml centrifuge tube in which 10 ml of 0.9% normal saline was added, and then centrifuging was performed at 1000 rpm for 5 min at room temperature, and the obtained supernatant was removed. Then 10 ml of 0.9% normal saline was added to the tube to blow and mix well, and then the mixture was diluted to 5×10^6 live cells/ml with normal saline after counting. The tube was stored in ice water, and 75% ethanol was used to disinfect the skin under the right armpits of the mice. Each Kunming mouse was soon inoculated subcutaneously with 0.2 ml of the cells at the armpit of the right forelimb.
In the H22 liver cancer model, the mice inoculated with the tumor were randomly divided into groups with 10 mice in each group on the next day of inoculation. […] Each group was continuously administered intragastrically for 7 days with a dose of 20 ml/kg.
as §4, §5

[7] = 26 mg/kg, positive drug group, by tumor weight
[8] = 26 mg/kg, positive drug group, d1
[9] = PANC-1 nude mice, 30 mg/kg i.g. 30 d

SMILES: O=P1(N(CCCl)CCCl)NCCCO1 (stereo not shown) [Cyclophosphamide]
- Body Weight (g)(d1) [1]: 21.57 ± 1.31 g
- Body Weight (g)(d30) [1]: 20.39 ± 1.02 g
- Inhibition Rate (%) [1]: 71.36%
- Relative Tumor Proliferation Rate(T/C) [1]: 19.93%
- Relative Tumor Volume (RTV) [1]: 3.34 ± 0.68
- Tumor Volume (mm3) (d1) [1]: 181.48 ± 31.63 mm3
- Tumor Volume (mm3) (d30) [1]: 606.14 ± 14.34 mm3
- Tumor Weight [1]: 0.62 ± 0.17 g
- Relative Tumor Proliferation Rate(T/C) [2]: 52.01%
- Relative Tumor Volume (RTV) [2]: 9.05 ± 2.58
- Tumor Weight [2]: 0.66 ± 0.28 g
- Inhibition Rate (%) ([2]; by tumor weight): 72.12%
- Body Weight (g)(d1) ([2]; d1): 22.78 ± 1.35 g
- Tumor Volume (mm3) (d1) ([2]; d1): 92.02 ± 7.06 mm3
- Body Weight (g)(d30) ([2]; d30): 21.32 ± 1.63 g
- Tumor Volume (mm3) (d30) ([2]; d30): 830.30 ± 34.31 mm3
- Tumor Weight ([3]; 26 mg/kg, positive drug group, 15 days): 0.59 ± 0.13 g
- Inhibition Rate (%) [3, 7]: 49.14%
- Body Weight (g)(d1) [3, 8]: 25.60 ± 2.06 g
- Body Weight (g) (d15) ([3]; 26 mg/kg, positive drug group, d15): 20.14 ± 3.26 g
- tumor inhibition rate ([3]; mouse Lewis lung cancer, cyclophosphamide 30 mg/kg i.g. 15 days): 49.14%
- Body Weight (g)(d1) [4]: 22.89 ± 1.22 g
- Body Weight (g)(d30) [4]: 19.27 ± 1.49 g
- Inhibition Rate (%) [4]: 68.68%
- Relative Tumor Proliferation Rate(T/C) [4]: 75.42%
- Relative Tumor Volume (RTV) [4]: 11.78 ± 3.25
- Tumor Volume (mm3) (d1) [4]: 122.41 ± 14.06 mm3
- Tumor Volume (mm3) (d30) [4]: 1430.80 ± 134.31 mm3
- Tumor Weight [4]: 0.85 ± 0.18 g
- Relative Tumor Proliferation Rate(T/C) ([5]; 30 mg/kg): 54.55%
- Relative Tumor Volume (RTV) ([5]; 30 mg/kg): 5.54 ± 0.72
- Tumor Volume (mm3) (d1) ([5]; 30 mg/kg, d1): 93.73 ± 8.27 mm3
- Tumor Volume (mm3) (d30) ([5]; 30 mg/kg, d30): 515.49 ± 32.36 mm3
- Body Weight (g)(d1) [5, 9]: 21.89 ± 1.88 g
- Body Weight (g)(d30) [5, 9]: 19.92 ± 1.68 g
- Inhibition Rate (%) [5, 9]: 80.43%
- Tumor Weight [5, 9]: 0.73 ± 0.09 g
- tumour ([6]; 26 mg/kg, positive drug group): 0.53 ± 0.24 g
- Inhibition Rate (%) [6, 7]: 47.25%
- Body Weight (g)(d1) [6, 8]: 23.50 ± 1.90 g
- Body Weight (g) (d7) ([6]; 26 mg/kg, positive drug group, d7): 25.13 ± 2.69 g
- weight compared with the normal control group ([6]; H22 liver cancer mice, cyclophosphamide 26 mg/kg): slight decrease in weight
- tumor inhibition rate ([6]; Kunming mouse H22 liver cancer, cyclophosphamide 26 mg/kg i.g. 7 days): 47.25%
